Results on three molecules are retold here after patent US11890315B2, “Stable ascorbic acid compositions and methods of using same” (RENOVION, INC., priority 2017, dated 2024).

Data set [1] can be described thus: Stability: oxidized glutathione and reduced ascorbic acid after 4 weeks of storage at 5° C. The class given is physicochemical. The settings on record: reduced ascorbic acid maintained after 4 weeks at 5° C.; pH and atmosphere per formulation. The text has this:
Oxidized glutathione is associated with the generation of protein-carbonyls via glutathionlyation, which occurs when oxidized glutathione dissociates and attaches to proteins. […] Additionally, when ascorbic acid is oxidized into dehydroascorbate (DHA), DHA can break down and result in the formation of protein adducts in process called ascorbylation (Simpson et al., Biochim biophys Acta 2000; 1501:12-24). […] Specifically, nitrogen-sparged samples were mixed under anaerobic conditions sparged with nitrogen, and the samples were packaged using nitrogen bubbling. Ambient samples were mixed under room air conditions and were not bubbled with nitrogen. The formulations were stored at 5° C. for 4 weeks, and the percent of oxidized glutathione (GSSG) and ascorbic acid (ASC) was measured for each sample according to standard techniques.

A short description of data set [2]: Storage stability about 72 hours at 2-8° C. Type of data set: physicochemical. As to conditions: −20° C., 5° C., ambient; data not shown. How it is done:
The effects of storage on ascorbic acid compositions including varying amounts of buffer with a consistent glutathione concentration were tested. […] At testing, Formulations 1-9 were evaluated to determine ascorbic acid and reduced and oxidized glutathione concentrations. A standard RP-HPLC method for these analytes was used. The method was validated including specificity, accuracy, repeatability, LOQ, mini linearity, in-vial NPLC sample stability and stability-indicating check with informal forced degradation samples. The pH of each formulation was determined using a pH probe place in a sample of each solution. Results are shown in FIG. 15. ascorbic (ACS) alone was unstable under the conditions tested (−20° C., 5° C., ambient) (data not shown).

For data set [3], the system named is dF508−/− primary human bronchial epithelial cells. Description: Mucociliary transport rate, ASL and CBF by micro-optical coherence tomography (uOCT). Type of data set: cell-based. As to conditions: isolated components vs PBS control; FIG. 2.
Text: Briefly, primary human bronchial epithelial cells were isolated from the airways of patients with cystic fibrosis and were terminally differentiated. All cells isolated from cystic fibrosis patients were represented by the dF508−/− genotype. […] Micro-optical coherence tomography (uOCT) was used to assess the mucociliary transport rate according to methods described in Liu, L., et al., PLoS One.
As described above in Example 2, primary human bronchial epithelial cells were isolated from the airways of patients with cystic fibrosis, and uOCT was used to assess the mucociliary transport rate according to methods described in Liu, L., et al., PLoS One.
MCT rate was assessed in a mucociliary clearance assay according to the methods in Example 3 above.
The next data set has as its system MRSA UAB-1. In words: In vitro MIC against bacterial isolates. The class given is cell-based, Methicillin-resistant Staphylococcus aureus. The settings on record: Anaerobic (+nitrate); 12 hrs. How it is done:
(§1) The MIC for laboratory clinical isolate Pseudomonas aeruginosa (Schroeter) Migula (ATCC BAA-47 (PAO1)) was also tested. The MICs were determined under anaerobic conditions on media supplemented with nitrate, under aerobic conditions supplemented with nitrate, or under ambient conditions.
(§2) The clinical isolates were inoculated in duplicate on agar plates overnight under anaerobic conditions at 36° C.±1.0° C. in a 96-well plate. Laboratory isolates of Burkholderia cepacia were also grown in duplicate overnight under aerobic conditions at 36° C.±1.0° C. in a 96-well plate. […] Ten dilutions for each test solution were examined: 50%, 25%, 12.5%, 6.25%, 3.13%, 1.57%, 0.78%, 0.39%, 0.2%, and 0.1%. The colony isolates were incubated for 12 hours or 24 hours at 36° C.±1.0° C. under anaerobic conditions in media comprising Luria Agar/Broth and nitrate with one of the three test solutions. […] MICs were determined via visual inspection and OD620.

The next data set concerns MRSA UAB-3. Description: In vitro MIC against bacterial isolates. As to conditions: Anaerobic (+nitrate); 12 hrs. Type of data set: cell-based, Methicillin-resistant Staphylococcus aureus. How it is done: as §1, §2
Another data set relates to Pa UAB-NM-5. Description: In vitro MIC against bacterial isolates. Type of data set: cell-based, Pseudomonas aeruginosa. The settings on record: Anaerobic (+nitrate); 12 hrs. Here is the method: as §1, §2
In another data set the test system is Pa UAB-NM-3. In words: In vitro MIC against bacterial isolates. Type of data set: cell-based, Pseudomonas aeruginosa. As to conditions: Anaerobic (+nitrate); 12 hrs. How it is done:
as §1, §2

Another data set concerns Pa BAA-47 (PAO1). In words: In vitro MIC against bacterial isolates. Type of data set: cell-based, Pseudomonas aeruginosa. As to conditions: Anaerobic (+nitrate); 12 hrs. Here is the method:
as §1, §2

A further data set has as its system Pa UAB-M-2. Description: In vitro MIC against bacterial isolates. The class given is cell-based, Pseudomonas aeruginosa. The settings on record: Anaerobic (+nitrate); 12 hrs. How it is done: as §1, §2
The next data set concerns Pa UAB-NM-1. In words: In vitro MIC against bacterial isolates. The settings on record: Anaerobic (+nitrate); 12 hrs. Type of data set: cell-based, Pseudomonas aeruginosa. How it is done: as §1, §2

As to `O=C1O[C@H]([C@@H](O)CO)C(O)=C1O` [Ascorbic Acid Only, ascorbic acid], the “% ASC” value in data set [1] was 77.88%. Further, the stability result in data set [2] is listed as “unstable”.

For `N[C@@H](CCC(=O)N[C@@H](CS)C(=O)NCC(=O)O)C(=O)O` [glutathione, Glutathione], the mucociliary transport rate result in data set [3] is “did not alter the mucociliary transport rate”.

For `O=C([O-])O.[Na+]` [HCO3, sodium bicarbonate], in data set [3], the mucociliary transport rate result is on record as “did not alter the mucociliary transport rate”. The MIC is recorded as 25% against MRSA UAB-1; 25% against MRSA UAB-3; 12.5% with Pa UAB-NM-5; 12.5% with Pa UAB-NM-3; 12.5% in the data set on Pa BAA-47 (PAO1); 12.5% in the data set on Pa UAB-M-2. This molecule also returned an MIC against Pa UAB-NM-1 of 12.5%.
